{"source": "paper PMC5218480", "about": "(PLoS ONE, 2017)", "system": "MV-4-11 cells", "assay": "Gene expression microarray analysis (Affymetrix PrimeView) and GSEA", "type": "cell-based, human", "set-up": "RFU PODN (11730768_x_at) / Fold change /veh PODN (11730768_x_at) / RFU LINC00158 (11744669_a_at) / Fold change /veh LINC00158 (11744669_a_at) / RFU DUSP10 (11751237_a_at) / Fold change /veh DUSP10 (11751237_a_at) / RFU ID3 (11757404_x_at) / Fold change /veh ID3 (11757404_x_at) / RFU PLEKHG5 (11737974_s_at) / Fold change /veh PLEKHG5 (11737974_s_at) / RFU LRRC4B (11730491_at) / Fold change /veh LRRC4B (11730491_at) / RFU GIMAP4 (11747438_a_at) / Fold change /veh GIMAP4 (11747438_a_at) / RFU KRT8 (11758183_x_at) / Fold change /veh KRT8 (11758183_x_at) / RFU CNN1 (11734310_a_at) / Fold change /veh CNN1 (11734310_a_at) / RFU VPS37D (11726825_at) / Fold change /veh VPS37D (11726825_at) / RFU C10orf10 (11716522_x_at) / Fold change /veh C10orf10 (11716522_x_at) / RFU KIR2DL2 /// KIR2DL4 /// KIR2DL5A /// KIR2DL5B /// KIR2DS1 /// KIR2DS2 /// KIR2DS3 /// KIR2DS4 /// KIR3DL3 /// KIR3DL3 /// KIR3DS1 (11738374_at) / Fold change /veh KIR2DL2 /// KIR2DL4 /// KIR2DL5A /// KIR2DL5B /// KIR2DS1 /// KIR2DS2 /// KIR2DS3 /// KIR2DS4 /// KIR3DL3 /// KIR3DL3 /// KIR3DS1 (11738374_at) / RFU C1QL1 (11718748_at) / Fold change /veh C1QL1 (11718748_at) / RFU TMPRSS4 (11747572_a_at) / Fold change /veh TMPRSS4 (11747572_a_at) / RFU HAMP (11756126_x_at) / Fold change /veh HAMP (11756126_x_at) / RFU RNFT2 (11725882_a_at) / Fold change /veh RNFT2 (11725882_a_at) / RFU NR4A2 (11747474_a_at) / Fold change /veh NR4A2 (11747474_a_at) / RFU ABCC12 (11746883_a_at) / Fold change /veh ABCC12 (11746883_a_at) / RFU TMEM136 (11760407_x_at) / Fold change /veh TMEM136 (11760407_x_at) / RFU CLDN22 /// WWC2 (11732394_at) / Fold change /veh CLDN22 /// WWC2 (11732394_at) / RFU HLA-DPB1 (11760878_x_at) / Fold change /veh HLA-DPB1 (11760878_x_at) / RFU SPINT1 (11716480_a_at) / Fold change /veh SPINT1 (11716480_a_at) / RFU GAP43 (11754022_s_at) / Fold change /veh GAP43 (11754022_s_at) / RFU A4GNT (11735810_at) / Fold change /veh A4GNT (11735810_at) / RFU PRB3 (11715151_x_at) / Fold change /veh PRB3 (11715151_x_at) / RFU TUBB4B (11761932_at) / Fold change /veh TUBB4B (11761932_at) / RFU CAPN14 (11732068_a_at) / Fold change /veh CAPN14 (11732068_a_at) / RFU TMCC2 (11721928_a_at) / Fold change /veh TMCC2 (11721928_a_at) / RFU IRGQ (11745062_a_at) / Fold change /veh IRGQ (11745062_a_at) / RFU FAM174B (11720279_a_at) / Fold change /veh FAM174B (11720279_a_at) / RFU TMPRSS4 (11748680_a_at) / Fold change /veh TMPRSS4 (11748680_a_at) / RFU FAM212B (11763350_a_at) / Fold change /veh FAM212B (11763350_a_at) / RFU PLEKHG5 (11743358_a_at) / Fold change /veh PLEKHG5 (11743358_a_at) / RFU ZSCAN30 (11745921_a_at) / Fold change /veh ZSCAN30 (11745921_a_at) / RFU CMKLR1 (11741424_a_at) / Fold change /veh CMKLR1 (11741424_a_at) / RFU LOC101060620 /// MAPK8IP1 (11723275_at) / Fold change /veh LOC101060620 /// MAPK8IP1 (11723275_at) / RFU SPTSSB (11747773_x_at) / Fold change /veh SPTSSB (11747773_x_at) / RFU PRSS12 (11739890_at) / Fold change /veh PRSS12 (11739890_at) / RFU BIN1 (11741810_x_at) / Fold change /veh BIN1 (11741810_x_at) / RFU WNT11 (11732464_a_at) / Fold change /veh WNT11 (11732464_a_at) / RFU C10orf10 (11716521_a_at) / Fold change /veh C10orf10 (11716521_a_at) / RFU C5orf56 (11738089_at) / Fold change /veh C5orf56 (11738089_at) / RFU CYB561 (11721691_x_at) / Fold change /veh CYB561 (11721691_x_at) / RFU ANKRD19P (11752326_a_at) / Fold change /veh ANKRD19P (11752326_a_at) / RFU OR2T12 /// OR2T33 /// OR2T8 (11738714_s_at) / Fold change /veh OR2T12 /// OR2T33 /// OR2T8 (11738714_s_at) / RFU VCAN (11748164_a_at) / Fold change /veh VCAN (11748164_a_at) / RFU JSRP1 (11732532_at) / Fold change /veh JSRP1 (11732532_at) / RFU KRTAP10-11 (11738290_x_at) / Fold change /veh KRTAP10-11 (11738290_x_at) / RFU MYO3A (11730013_a_at) / Fold change /veh MYO3A (11730013_a_at) / RFU EBF3 (11725865_a_at) / Fold change /veh EBF3 (11725865_a_at) / RFU CAMK2N1 (11719241_x_at) / Fold change /veh CAMK2N1 (11719241_x_at) / RFU C5orf56 (11738088_a_at) / Fold change /veh C5orf56 (11738088_a_at) / RFU OLFML3 (11715873_a_at) / Fold change /veh OLFML3 (11715873_a_at) / RFU LOC100653217 /// NTM (11731650_a_at) / Fold change /veh LOC100653217 /// NTM (11731650_a_at) / RFU MAPK11 (11762145_a_at) / Fold change /veh MAPK11 (11762145_a_at) / RFU FIZ1 (11724087_x_at) / Fold change /veh FIZ1 (11724087_x_at) / RFU OASL (11726364_x_at) / Fold change /veh OASL (11726364_x_at) / RFU SOX15 (11748057_x_at) / Fold change /veh SOX15 (11748057_x_at) / RFU CD79A (11719716_a_at) / Fold change /veh CD79A (11719716_a_at) / RFU HIST1H1D (11736915_at) / Fold change /veh HIST1H1D (11736915_at) / RFU CASKIN2 (11723855_a_at) / Fold change /veh CASKIN2 (11723855_a_at) / RFU LOC730098 (11760151_x_at) / Fold change /veh LOC730098 (11760151_x_at) / RFU OR4N2 (11742367_at) / Fold change /veh OR4N2 (11742367_at) / RFU PRRT2 (11749266_a_at) / Fold change /veh PRRT2 (11749266_a_at) / RFU SNX32 (11753110_a_at) / Fold change /veh SNX32 (11753110_a_at) / RFU CDHR5 (11726645_a_at) / Fold change /veh CDHR5 (11726645_a_at) / RFU RCAN1 (11760418_a_at) / Fold change /veh RCAN1 (11760418_a_at) / RFU FAM167A (11723789_a_at) / Fold change /veh FAM167A (11723789_a_at) / RFU FAM26E (11764081_at) / Fold change /veh FAM26E (11764081_at) / RFU ISYNA1 (11749810_s_at) / Fold change /veh ISYNA1 (11749810_s_at) / RFU ACY1 (11761880_at) / Fold change /veh ACY1 (11761880_at) / RFU 11764098_at / Fold change /veh 11764098_at / RFU SAMD14 (11745864_x_at) / Fold change /veh SAMD14 (11745864_x_at) / RFU NPB (11741838_a_at) / Fold change /veh NPB (11741838_a_at) / RFU TMPRSS6 (11731388_a_at) / Fold change /veh TMPRSS6 (11731388_a_at) / RFU KRTAP10-2 (11738614_at) / Fold change /veh KRTAP10-2 (11738614_at) / RFU ARHGAP8 /// PRR5-ARHGAP8 (11727945_x_at) / Fold change /veh ARHGAP8 /// PRR5-ARHGAP8 (11727945_x_at) / RFU KRTAP5-7 /// NADSYN1 (11734609_at) / Fold change /veh KRTAP5-7 /// NADSYN1 (11734609_at) / RFU RASL12 (11751679_a_at) / Fold change /veh RASL12 (11751679_a_at) / RFU CDKN2B (11736163_a_at) / Fold change /veh CDKN2B (11736163_a_at) / RFU PRF1 (11729649_at) / Fold change /veh PRF1 (11729649_at) / RFU, ZNF638 /// ZNF638-IT1 / Fold change vs veh, ZNF638 /// ZNF638-IT1 / RFU, PANK3 / Fold change vs veh, PANK3 / RFU, SH3YL1 / Fold change vs veh, SH3YL1 / RFU, ZEB2 / Fold change vs veh, ZEB2 / RFU, NRIP1 / Fold change vs veh, NRIP1 / RFU, PTTG1IP / Fold change vs veh, PTTG1IP / RFU, CAPN2 / Fold change vs veh, CAPN2 / RFU, MED14 / Fold change vs veh, MED14 / RFU, SNORA58 / Fold change vs veh, SNORA58 / RFU, C1orf63 / Fold change vs veh, C1orf63 / RFU, LRRFIP1 / Fold change vs veh, LRRFIP1 / RFU, NDUFAF7 / Fold change vs veh, NDUFAF7 / RFU, SLC12A2 / Fold change vs veh, SLC12A2 / RFU, IBTK / Fold change vs veh, IBTK / RFU, ESF1 / Fold change vs veh, ESF1 / Fold change vs veh, TMEM50B / RFU, TAOK1 / Fold change vs veh, TAOK1 / RFU, ACBD3 / Fold change vs veh, ACBD3 / RFU, TMA16 / Fold change vs veh, TMA16 / RFU, RWDD3 / Fold change vs veh, RWDD3 / RFU, BCAT1 / Fold change vs veh, BCAT1 / RFU, EDEM3 / Fold change vs veh, EDEM3 / RFU, TMEM33 / Fold change vs veh, TMEM33 / RFU, WDR75 / Fold change vs veh, WDR75 / RFU, AHCTF1 / Fold change vs veh, AHCTF1 / RFU, TFRC / Fold change vs veh, TFRC / RFU, ZDHHC17 / Fold change vs veh, ZDHHC17 / RFU, NOM1 / Fold change vs veh, NOM1 / RFU, ARL8B / Fold change vs veh, ARL8B / RFU, ZBTB11 / Fold change vs veh, ZBTB11 / RFU, TAMM41 / Fold change vs veh, TAMM41 / RFU, KIAA1704 /// LOC100996395 / Fold change vs veh, KIAA1704 /// LOC100996395 / RFU, ING1 / Fold change vs veh, ING1 / RFU, TRMT61B / Fold change vs veh, TRMT61B / RFU, FUBP3 / Fold change vs veh, FUBP3 / RFU, TP53 / Fold change vs veh, TP53 / RFU, TNKS2 / Fold change vs veh, TNKS2 / RFU, ZFP14 / Fold change vs veh, ZFP14 / RFU, ACTR2 / Fold change vs veh, ACTR2 / RFU, PPP3R1 / Fold change vs veh, PPP3R1 / RFU, PIK3R1 / Fold change vs veh, PIK3R1 / RFU, HNRNPA1 / Fold change vs veh, HNRNPA1 / RFU, RNF170 / Fold change vs veh, RNF170 / RFU, ZNF28 / Fold change vs veh, ZNF28 / RFU, RNGTT / Fold change vs veh, RNGTT / RFU, OGT / Fold change vs veh, OGT / RFU, BRD1 / Fold change vs veh, BRD1 / RFU, MARS / Fold change vs veh, MARS / RFU, ZNF655 / Fold change vs veh, ZNF655 / RFU, FAHD1 / Fold change vs veh, FAHD1 / RFU, BDP1 / Fold change vs veh, BDP1 / RFU, LRRCC1 / Fold change vs veh, LRRCC1 / RFU, ARID1A / Fold change vs veh, ARID1A / RFU, ZNF146 / Fold change vs veh, ZNF146 / RFU, ZNF330 / Fold change vs veh, ZNF330 / RFU, GPN3 / Fold change vs veh, GPN3 / RFU, C9orf123 / Fold change vs veh, C9orf123 / RFU, N4BP2L2 / Fold change vs veh, N4BP2L2 / RFU, ARFIP1 / Fold change vs veh, ARFIP1 / RFU, FAM179B / Fold change vs veh, FAM179B / RFU, BCL10 / Fold change vs veh, BCL10 / RFU, UHRF1BP1L / Fold change vs veh, UHRF1BP1L / RFU, BET1 / Fold change vs veh, BET1 / RFU, CNOT2 / Fold change vs veh, CNOT2 / RFU, ZNF268 / Fold change vs veh, ZNF268 / Fold change vs veh, ZNF507 / RFU, DGCR2 / Fold change vs veh, DGCR2 / RFU, WDSUB1 / Fold change vs veh, WDSUB1 / Fold change vs veh, HSP90B1 /// MIR3652 / RFU, ADSS / Fold change vs veh, ADSS / RFU, GK / Fold change vs veh, GK / RFU, ZNF148 / Fold change vs veh, ZNF148 / RFU, TAF9 / Fold change vs veh, TAF9 / RFU, SLC1A5 / Fold change vs veh, SLC1A5 / RFU, SLMO2 / Fold change vs veh, SLMO2 / RFU, ABCC4 / Fold change vs veh, ABCC4 / RFU, LOC101060439 /// RAP1B / Fold change vs veh, LOC101060439 /// RAP1B / RFU, RFX7 / Fold change vs veh, RFX7 / RFU, GTPBP10 / Fold change vs veh, GTPBP10 / RFU, CNEP1R1 / Fold change vs veh, CNEP1R1 / RFU, BIVM-ERCC5 /// ERCC5 / Fold change vs veh, BIVM-ERCC5 /// ERCC5 / RFU, ILF3 / Fold change vs veh, ILF3 / RFU 11762660_at / Fold change /veh 11762660_at / RFU VCAN (11757783_s_at) / Fold change /veh VCAN (11757783_s_at) / RFU DDX43 (11728927_at) / Fold change /veh DDX43 (11728927_at) / RFU KRT8 (11758188_x_at) / Fold change /veh KRT8 (11758188_x_at) / RFU NKD1 (11759106_at) / Fold change /veh NKD1 (11759106_at) / RFU SRD5A1 (11742802_a_at) / Fold change /veh SRD5A1 (11742802_a_at) / RFU TPSAB1 /// TPSB2 (11721975_s_at) / Fold change /veh TPSAB1 /// TPSB2 (11721975_s_at) / RFU GSTM3 (11746129_a_at) / Fold change /veh GSTM3 (11746129_a_at) / RFU IL23R (11737362_x_at) / Fold change /veh IL23R (11737362_x_at) / RFU TMEM51 (11727254_a_at) / Fold change /veh TMEM51 (11727254_a_at) / RFU PIWIL2 (11732686_x_at) / Fold change /veh PIWIL2 (11732686_x_at) / RFU ORM1 (11744905_x_at) / Fold change /veh ORM1 (11744905_x_at) / RFU CCDC152 (11743942_at) / Fold change /veh CCDC152 (11743942_at) / RFU ECM1 (11717891_a_at) / Fold change /veh ECM1 (11717891_a_at) / RFU IL23R (11748794_a_at) / Fold change /veh IL23R (11748794_a_at) / RFU TNFAIP8L3 (11732012_x_at) / Fold change /veh TNFAIP8L3 (11732012_x_at) / RFU MBOAT4 (11741988_at) / Fold change /veh MBOAT4 (11741988_at) / RFU 11764193_at / Fold change /veh 11764193_at / RFU TMEM53 (11763286_at) / Fold change /veh TMEM53 (11763286_at) / RFU MAGEB2 (11727129_at) / Fold change /veh MAGEB2 (11727129_at) / RFU TMEM200A (11744735_a_at) / Fold change /veh TMEM200A (11744735_a_at) / RFU CCDC152 (11751479_a_at) / Fold change /veh CCDC152 (11751479_a_at) / RFU FAM211A (11726209_a_at) / Fold change /veh FAM211A (11726209_a_at) / RFU RGS16 (11746705_a_at) / Fold change /veh RGS16 (11746705_a_at) / RFU VCAN (11755009_s_at) / Fold change /veh VCAN (11755009_s_at) / RFU RHOB (11743442_s_at) / Fold change /veh RHOB (11743442_s_at) / RFU RGS16 (11720943_a_at) / Fold change /veh RGS16 (11720943_a_at) / RFU RGS16 (11720944_at) / Fold change /veh RGS16 (11720944_at) / RFU, VPS4B / Fold change vs veh, VPS4B / RFU, CREB1 / Fold change vs veh, CREB1 / RFU, DNAJC13 / Fold change vs veh, DNAJC13 / RFU, GNAQ / Fold change vs veh, GNAQ / RFU, CDK5R1 / Fold change vs veh, CDK5R1 / RFU, ZRANB3 / Fold change vs veh, ZRANB3 / RFU, CUL4A / Fold change vs veh, CUL4A / RFU, CCNY / Fold change vs veh, CCNY / RFU, UFL1 / Fold change vs veh, UFL1 / RFU, COG3 / Fold change vs veh, COG3 / RFU, DIAPH2 / Fold change vs veh, DIAPH2 / RFU, SKA2 / Fold change vs veh, SKA2 / RFU, AFF3 / Fold change vs veh, AFF3 / RFU, LMF1 / Fold change vs veh, LMF1 / RFU, IPO11 / Fold change vs veh, IPO11 / RFU, DFFB / Fold change vs veh, DFFB / RFU, FOXP1 / Fold change vs veh, FOXP1 / RFU, CARD8 / Fold change vs veh, CARD8 / RFU, STRN3 / Fold change vs veh, STRN3 / RFU, ADK / Fold change vs veh, ADK / RFU, RASSF2 / Fold change vs veh, RASSF2 / RFU, WIPF1 / Fold change vs veh, WIPF1 / RFU, LARP1B / Fold change vs veh, LARP1B / RFU, RASA1 / Fold change vs veh, RASA1 / RFU, RB1 / Fold change vs veh, RB1 / RFU, PPFIA1 / Fold change vs veh, PPFIA1 / RFU, MAT2A / Fold change vs veh, MAT2A / RFU, CCT5 / Fold change vs veh, CCT5 / RFU, WDR92 / Fold change vs veh, WDR92 / RFU, CUX1 / Fold change vs veh, CUX1 / RFU, TTC7A / Fold change vs veh, TTC7A / RFU, TMEM135 / Fold change vs veh, TMEM135 / RFU, DEPTOR / Fold change vs veh, DEPTOR / RFU, CPM / Fold change vs veh, CPM / RFU, DNAJB6 / Fold change vs veh, DNAJB6 / RFU, CACNA2D3 / Fold change vs veh, CACNA2D3 / RFU, DTX4 / Fold change vs veh, DTX4 / RFU, TFCP2 / Fold change vs veh, TFCP2 / RFU, GMCL1 /// GMCL1P1 / Fold change vs veh, GMCL1 /// GMCL1P1 / RFU, AEBP2 / Fold change vs veh, AEBP2 / RFU, SNHG1 /// SNORD22 /// SNORD25 /// SNORD26 /// SNORD27 /// SNORD28 /// SNORD29 /// SNORD31 / Fold change vs veh, SNHG1 /// SNORD22 /// SNORD25 /// SNORD26 /// SNORD27 /// SNORD28 /// SNORD29 /// SNORD31 / Fold change (Aza/veh), C12orf56 (ProbeSet 11735607_a_at) / Fold change (ACY-1035/veh), C12orf56 (ProbeSet 11735607_a_at) / Fold change (Aza/veh), FGFR1OP (ProbeSet 11751329_s_at) / Fold change (ACY-1035/veh), FGFR1OP (ProbeSet 11751329_s_at) / Fold change (Aza/veh), VPS36 (ProbeSet 11739960_a_at) / Fold change (ACY-1035/veh), VPS36 (ProbeSet 11739960_a_at) / RFU SYPL1 (11715823_x_at) / Fold change /veh SYPL1 (11715823_x_at) / RFU IGFBP7 (11715501_s_at) / Fold change /veh IGFBP7 (11715501_s_at) / RFU REEP3 (11722064_at) / Fold change /veh REEP3 (11722064_at) / RFU IGLL1 (11728026_x_at) / Fold change /veh IGLL1 (11728026_x_at): dose or concentration left out as unconfirmed", "conditions": "MV-4-11 cells, 48 hours"}
{"smiles": "Nc1ccc(-c2cccs2)cc1NC(=O)c1ccc2c(c1)cc(C1CC1)n2CCN1CCOCC1", "note": "[ACY-1035]", "values": [{"measurement": "RFU LOC730098 (11760151_x_at)", "value": 35.48, "unit": "RFU"}]}
